According to ChEMBL document CHEMBL5053494, “Novel halogenated arylvinyl-1,2,4 trioxanes as potent antiplasmodial as well as anticancer agents: Synthesis, bioevaluation, structure-activity relationship and in-silico studies” (Eur J Med Chem, 2021):

What was measured:
A549 = assay: Anticancer activity against human A549 cells assessed as cell growth inhibition measured for 72 hrs by MTT assay; type: functional, cell-based; conditions: A549, 72 h
L02 = assay: Anticancer activity against human L02 cells assessed as cell growth inhibition measured for 72 hrs by MTT assay; type: functional, cell-based; conditions: L02, 72 h
BEAS-2B = assay: Anticancer activity against human BEAS-2B cells assessed as cell growth inhibition measured for 72 hrs by MTT assay; type: functional, cell-based
Plasmodium falciparum [1] = assay: Antiplasmodial activity against chloroquine-resistant Plasmodium falciparum INDO assessed as growth inhibition by SYBER green 1 dye based fluorescence assay; type: functional, organism-based
HepG2 = assay: Anticancer activity against human HepG2 cells assessed as cell growth inhibition measured for 72 hrs by MTT assay; type: functional, cell-based; conditions: HepG2, 72 h
[2] = Selectivity ratio of IC50 for anticancer activity against human BEAS-2B cells to IC50 for anticancer activity against human A549 cells; type: toxicity, cell-based; conditions: BEAS-2B cells versus A549 cells, read-out: Ratio IC50
[3] = Selectivity ratio of IC50 for anticancer activity against human L02 cells to IC50 for anticancer activity against human HepG2 cells; type: toxicity, cell-based; conditions: L02 cells versus HepG2 cells, read-out: Ratio IC50
Plasmodium falciparum [4] = assay: Resistance index, ratio of IC50 for antiplasmodial activity against artemisinin-resistant Plasmodium falciparum Cam 3.1 R539 to IC50 for antiplasmodial activity against chloroquine-resistant Plasmodium falciparum INDO; type: functional
Plasmodium falciparum [5] = assay: Antiplasmodial activity against artemisinin-resistant Plasmodium falciparum Cam 3.1 R539 assessed as growth inhibition by SYBER green 1 dye based fluorescence assay; type: functional, organism-based
[6] = Cytotoxicity against human HEK293 cells assessed as cell viability measured for 24 hrs by MTT assay; type: cell-based
[7] = Selectivity index, ratio of CC50 for human HEK293 cells to IC50 for antiplasmodial activity against chloroquine-resistant Plasmodium falciparum INDO; type: toxicity; conditions: HEK293 cells versus Plasmodium falciparum INDO

SMILES	IC50 (A549) [µM]	IC50 (L02) [µM]	IC50 (BEAS-2B) [µM]	IC50 (Plasmodium falciparum [1]) [µM]	IC50 (HepG2) [µM]	selectivity ratio [2]	selectivity ratio [3]	Ratio IC50 (Plasmodium falciparum [4])	IC50 (Plasmodium falciparum [5]) [µM]	CC50 at 24 h [6] [µM]	selectivity ratio [7]
C=C(c1ccc(Cl)c(Cl)c1)C1COC(C)(C)OO1 (configuration not stated)	> 100	50.9	> 100	> 0.1	> 100	–	–	–	–	–	–
C=C(c1ccc(Cl)cc1Cl)C1COC(C)(C)OO1 (configuration not stated)	92.6	37.7	68.6	> 0.1	90.5	0.74	0.16	–	–	–	–
C=C(c1ccc(Cl)c(Cl)c1)C1COC2(OO1)C1CC3CC(C1)CC2C3 (configuration not stated)	2.93	3.36	26.7	0.0224	34.3	9.11	0.5	2.24	0.05	13.2	599
C=C(c1ccc(Cl)c(Cl)c1Cl)C1COC(C)(C)OO1 (configuration not stated)	52.1	18.1	10.2	> 0.1	27.3	0.19	0.14	–	–	–	–
C=C(c1ccc(OC)c(F)c1)C1COC(C)(C)OO1 (configuration not stated)	100	> 100	68.7	> 0.1	> 100	–	0.37	–	–	–	–
C=C(c1ccc(F)cc1F)C1COC2(CCCC2)OO1 (configuration not stated)	5.09	17.6	62.6	> 0.1	15.4	12.3	1.14	–	–	–	–
CC(=O)O[C@H]1C(=O)[C@@]2(C)[C@H]([C@H](OC(=O)c3ccccc3)[C@]3(O)C[C@H](OC(=O)[C@H](O)[C@@H](NC(=O)c4ccccc4)c4ccccc4)C(C)=C1C3(C)C)[C@]1(OC(C)=O)CO[C@@H]1C[C@@H]2O [PACLITAXEL]	–	< 0.1	< 0.1	–	0.19	–	–	–	–	–	–
C=C(c1ccc(Cl)c(Cl)c1)C1COC2(CCCC2)OO1 (configuration not stated)	4.68	8.45	50.9	> 0.1	62.6	10.9	0.13	–	–	–	–
C=C(c1ccc(F)cc1F)C1COC(C)(C)OO1 (configuration not stated)	> 100	> 100	> 100	> 0.1	> 100	–	–	–	–	–	–
C=C(c1ccc(Cl)cc1Cl)C1COC2(OO1)C1CC3CC(C1)CC2C3 (configuration not stated)	9.92	12.5	10.2	0.0154	17.2	1.02	0.41	2.99	0.0462	14.8	989
C=C(c1cc(Cl)cc(Cl)c1OCc1ccccc1)C1COC(C)(C)OO1 (configuration not stated)	58.4	64.1	25.5	0.04	39.5	3.16	4.78	0.44	0.0173	31.6	811
C=C(c1ccc(F)cc1F)C1COC2(CCCCC2)OO1 (configuration not stated)	> 100	17.6	49.7	> 0.1	36	11.5	–	–	–	–	–
C=C(c1ccc(F)c(F)c1)C1COC(C)(C)OO1 (configuration not stated)	> 100	> 100	> 100	> 0.1	> 100	–	–	–	–	–	–
C=C(c1ccc(Cl)c(Cl)c1Cl)C1COC2(CCCCC2)OO1 (configuration not stated)	1.37	1.22	10.3	> 0.1	9.02	7.51	0.72	–	–	–	–
C=C(c1ccc(OC)c(F)c1)C1COC2(CCCCC2)OO1 (configuration not stated)	6.53	15.4	37.7	> 0.1	13.1	5.77	1.17	–	–	–	–
C=C(c1cc(Cl)cc(Cl)c1OCc1ccccc1)C1COC2(CCCCC2)OO1 (configuration not stated)	> 100	> 100	> 100	> 0.1	> 100	–	–	–	–	–	–
C=C(c1ccc(F)c(F)c1)C1COC2(CCCCC2)OO1 (configuration not stated)	7.88	16.5	61.2	> 0.1	28.6	1.26	0.22	–	–	–	–
C=C(c1ccc(F)c(F)c1)C1COC2(CCCC2)OO1 (configuration not stated)	11.7	8.84	73.6	0.0266	38.6	7.76	0.36	7.36	0.196	23.3	895
C=C(c1ccc(F)c(F)c1)C1COC2(OO1)C1CC3CC(C1)CC2C3 (configuration not stated)	4.97	9.48	57.1	0.0123	26.1	6.29	0.48	3.39	0.0414	12.6	1050
C=C(c1cc(Cl)cc(Cl)c1OCc1ccccc1)C1COC2(CCCC2)OO1 (configuration not stated)	2.07	65.6	28.6	0.0316	13.7	0.43	0.19	–	–	2.26	72.9
C=C(c1ccc(Cl)c(Cl)c1Cl)C1COC2(OO1)C1CC3CC(C1)CC2C3 (configuration not stated)	15	6.56	17.6	0.0421	34.4	1.17	0.66	–	–	75.8	1810
C=C(c1ccc(Cl)c(Cl)c1)C1COC2(CCCCC2)OO1 (configuration not stated)	12.8	83.5	39.4	> 0.1	83.5	3.07	2.37	–	–	–	–
C=C(c1ccc(OC)c(F)c1)C1COC2(CCCC2)OO1 (configuration not stated)	9.7	18.5	55.8	0.0111	29.3	5.75	0.63	7.8	0.0864	33	3000
C=C(c1cc(Cl)cc(Cl)c1OCc1ccccc1)C1COC2(OO1)C1CC3CC(C1)CC2C3 (configuration not stated)	31.6	> 100	> 100	0.0224	> 100	–	1.62	1.93	0.043	60.9	2770
C=C(c1ccc(F)cc1F)C1COC2(OO1)C1CC3CC(C1)CC2C3 (configuration not stated)	4.43	10.9	46.4	> 0.1	65.6	10.5	0.16	–	–	–	–
